Measurements published in patent US20060269907A1, “Decontamination of biological fluids using diphenylpyrilium compounds” (priority 2003, published 2006).
Where two headings read alike, the source gives them in different places.

Key:
E. coli = test: Bacterial photoinactivation in red cell suspensions; format: cell-based
red cells [1] = tested on: red cells
S. marcescens = format: cell-based
P. fluorescens = format: cell-based
intracellular VSV = format: cell-based, Vesicular Stomatitis Virus
D. radiodurans = test: Bacterial photoinactivation in red cell suspensions; format: cell-based; settings: 160 μM compound 2; RBCs 20% hematocrit in Erythrosol; 2 min 8.9 mW/cm^2 red light
S. epidermidis = format: cell-based
extracellular VSV = format: cell-based, Vesicular Stomatitis Virus
S. liquefaciens = format: cell-based
S. aureus = test: Bacterial photoinactivation in red cell suspensions; format: cell-based
[2] = tested on: gram positive and gram negative organisms; format: cell-based
Y. enterocolitica = test: Bacterial photoinactivation in red cell suspensions; format: cell-based
extracellular DHBV = test: Photoinactivation of extracellular DHBV in RBC suspensions; format: cell-based; settings: 10 μM TP; 200 μM DP; 20-percent hct RBCs in Erythrosol; 1.1 J/cm^2 light
extracellular PRV = format: cell-based, Pseudorabies virus
extracellular HIV = test: Photoinactivation of extracellular HIV in RBC suspensions; format: cell-based, HIV-1; settings: 80 μM TP; 200 μM DP; 20-percent hct RBCs in Erythrosol; 1.1 J/cm^2 light
intracellular HIV = test: Photoinactivation of intracellular HIV in RBC suspensions; format: cell-based, HIV-1; settings: 80 μM TP; 200 μM DP; 20-percent hct RBCs in Erythrosol; 1.1 J/cm^2 light
extracellular BVDV = format: cell-based
all tested viruses = format: cell-based
red cells [3] = settings: n=10
RBCs [4] = settings: n = 4
red blood cells = settings: cited from earlier work
RBCs [5] = test: Spectroscopic assay of TP binding to RBCs; settings: 200 μM DP; 160 μM TP; 20-percent hct RBCs in Erythrosol
[6] = 160 μM compound 2, RBCs 20% hematocrit in Erythrosol, 2 min 8.9 mW/cm^2 red light
[7] = 100 μM TP, 200 μM DP and 1.1 J/cm^2 red light, 20% hct RBCs in Erythrosol, n = 4

Cc1cc(-c2ccc(N(C)C)cc2)cc(-c2ccc(N(C)C)cc2)[s+]1 [Compound 2, 2′,4′-bis(4-N,N-dimethylaminophenyl) 6′-methylthiopyrilium iodide]
log10 inactivation (E. coli; [6]): >7.9 log10 | hemolysis (red cells [1]): < 1% | Hemolysis (%) (day 42) (red cells [1]; 160 μM): 0.45% | log10 inactivation (S. marcescens): >6.9 log10 | log10 inactivation (P. fluorescens): >7.7 log10 | log10 inactivation of intracellular VSV (intracellular VSV): 4.0 log10 | log10 VSV inact. (intracellular) (intracellular VSV; 160 μM): >5 log10 | log10 inactivation (D. radiodurans): >7.9 log10 | log10 inactivation (S. epidermidis): >7.9 log10 | log10 inactivation of extracellular VSV (extracellular VSV): > 7 log10 | Log10 VSV inact. (extracellular) (extracellular VSV; 10 μM): 1.3 log10 | Log10 VSV inact. (extracellular) (extracellular VSV; 20 μM): 2.2 log10 | Log10 VSV inact. (extracellular) (extracellular VSV; 30 μM): 2.7 log10 | Log10 VSV inact. (extracellular) (extracellular VSV; 60 μM): 4.8 log10 | Log10 VSV inact. (extracellular) (extracellular VSV; 90 μM): 5.7 log10 | Log10 VSV inact. (extracellular) (extracellular VSV; 160 μM): >7 log10 | log10 inactivation (S. liquefaciens): >7.4 log10 | log10 inactivation (S. aureus; [6]): >6.8 log10 | bacteria remaining after inactivation (limit of detection) [2]: < 1 CFU/mL | log10 inactivation (Y. enterocolitica; [6]): >7.5 log10

Cc1cc(-c2ccc(N(C)C)cc2)cc(-c2ccc(N(C)C)cc2)[s+]1.[I-] [Compound 2, 2′,4′-bis(4-N,N-dimethylaminophenyl) 6′-methylthiopyrilium iodide]
log10 inactivation of extracellular DHBV (extracellular DHBV): > 5.8 log10 | log10 inactivation (E. coli; [7]): 7.1 ± 0.5 log10 | hemolysis following 42 day 1-6° C. storage (red cells [1]; n=10): 0.29% | log10 inactivation (S. marcescens; n = 4): 6.2 ± 1.0 log10 | log10 inactivation of extracellular PRV (extracellular PRV): > 6.3 log10 | log10 inactivation (P. fluorescens; n = 4): 5.4 ± 1.0 log10 | log10 inactivation of extracellular HIV (extracellular HIV): > 7.5 log10 | log10 inactivation of intracellular HIV (intracellular HIV): 6.2±0.1 log10 | log10 inactivation of extracellular BVDV (extracellular BVDV): > 6 log10 | inactivation of all tested viruses (all tested viruses): inactivated to the limit of assay detection | log10 inactivation (S. epidermidis; n = 4): >7.6 log10 | potassium in the supernatant (red cells [3]): 16.6 ± 4.2 mM | potassium released to the supernatant (red cells [3]): 38.4 ± 4.4 mM | ATP level (RBCs [4]): 2.63±0.07 μmole/g Hb | morphology score (RBCs [4]): 94.5±1.5 | log10 inactivation of extracellular VSV (extracellular VSV): > 8.4 log10 | log10 inactivation (S. liquefaciens; n = 4): >7.1 log10 | log10 inactivation (S. aureus; [7]): >6.3 log10 | log10 inactivation of 5 of 7 tested organisms [2]: > 6 log10 | log10 inactivation of all tested organisms [2]: > 4 log10 | log10 inactivation (Y. enterocolitica; [7]): 5.9 ± 0.6 log10

Cc1cc(=[N+](C)C)cc2sc3cc(N(C)C)cc(C)c3nc1-2.[Cl-] [dimethylmethylene blue]
hemolysis (red blood cells; dye and light, after 6 week refrigerated storage in ADSOL): roughly 25% | hemolysis (red blood cells; following 6 weeks of 1-6° C. storage in Erythrosol): about 2% | hemolysis (red blood cells; six weeks of 1-6° C. storage in Erythrosol, RBCs pre-incubated with quinacrine): approximately 1.2%

OCCN(CCO)c1nc(N2CCCCC2)c2nc(N(CCO)CCO)nc(N3CCCCC3)c2n1 [dipyridamole, reference compound]
TP binding sites in RBCs blocked by DP (RBCs [5]): approximately 36%
